Measured values published in article PMC3113660 (Journal of medicinal chemistry, 2010).
Structures can show the parent of a compound that is named as a salt. Blank lines part the entries; values can stand above or below the compound they belong to.

Key:
[1] = system: Trypanosoma brucei rhodesiense (STIB900); experiment: In vitro growth inhibition assay of T. brucei rhodesiense; assay type: cell-based
[2] = system: Plasmodium falciparum (K1, resistant to chloroquine); experiment: In vitro growth inhibition assay of P. falciparum; assay type: cell-based; settings: for IC50: Plasmodium falciparum, K1, read-out: antiplasmodial IC50, P. falciparum, in vitro; for fold more active against P. falciparum: relative to diimidazoline 3

SMILES: CC(C)NC(=N)c1cccc(-c2cn(-c3cccc(C(=N)NC(C)C)c3)nn2)c1.Cl.Cl [Compound 2, 1,4-Bis(3-N-isopropylamidinophenyl)-1H-1,2,3-triazole Dihydrochloride]
fold less active against T. brucei rhodesiense ([1]; relative to diamidine 1): ~170 fold

SMILES: Cl.Cl.c1cc(C2=NCCN2)cc(-c2cn(-c3cccc(C4=NCCN4)c3)nn2)c1 [Compound 3, 1,4-Bis[3-(4,5-dihydro-1H-imidazol-2-yl)phenyl]-1H-1,2,3-triazole Dihydrochloride]
fold less active against T. brucei rhodesiense ([1]; relative to diamidine 1): ~170 fold

SMILES: COc1ccc(C(=N)N)cc1-n1cc(-c2cccc(C(=N)N)c2)nn1.Cl.Cl [Compound 4, 1-(5-Amidino-2-methoxyphenyl)-4-(3-amidinophenyl)-1H-1,2,3-triazole Dihydrochloride]
fold as active against T. brucei rhodesiense ([1]; relative to 2-O-demethylated analogue 10): 1000 fold | IC50 [2]: < 58 nM

IC50 [2]: < 58 nM
SMILES: COc1ccc(C2=NCCN2)cc1-n1cc(-c2cccc(C3=NCCN3)c2)nn1.Cl.Cl [Compound 6, 1-[5-(4,5-Dihydro-1H-imidazol-2-yl)-2-methoxyphenyl]-4-[3-(4,5-dihydro-1H-imidazol-2-yl)phenyl]-1H-1,2,3-triazole Dihydrochloride]
fold as active against T. brucei rhodesiense ([1]; relative to 2-O-demethylated analogue 12): 13 fold | fold more active against P. falciparum [2]: 12 fold

IC50 [2]: < 58 nM
SMILES: COc1ccc(C(=N)N)cc1-c1cn(-c2cccc(C(=N)N)c2)nn1.Cl.Cl [Compound 7, 4-(5-Amidino-2-methoxyphenyl)-1-(3-amidinophenyl)-1H-1,2,3-triazole Dihydrochloride]
fold less active against T. brucei rhodesiense ([1]; relative to diamidine 1): 20 fold

SMILES: Cl.Cl.N=C(N)c1cccc(-c2cn(-c3cc(C(=N)N)ccc3O)nn2)c1 [Compound 10, 1-(5-Amidino-2-hydroxyphenyl)-4-(3-amidinophenyl)-1H-1,2,3-triazole Dihydrochloride]
fold less active against T. brucei rhodesiense ([1]; relative to diamidine 1): 600 fold | fold less potent against P. falciparum ([2]; relative to 2-methoxy analogue 4): 320 fold | fold less potent against P. falciparum ([2]; relative to dication 1): 425 fold

SMILES: CC(C)NC(=N)c1cccc(-c2cn(-c3cc(C(=N)NC(C)C)ccc3O)nn2)c1.Cl.Cl [Compound 11, 1-(5-N-Isopropylamidino-2-hydroxyphenyl)-4-(3-N-isopropylamidinophenyl)-1H-1,2,3-triazole Dihydrochloride]
fold lower antiplasmodial activity ([2]; relative to congener 2): 7 fold | fold lower antiplasmodial activity ([2]; relative to congener 5): 6 fold

SMILES: Cl.Cl.Oc1ccc(C2=NCCN2)cc1-n1cc(-c2cccc(C3=NCCN3)c2)nn1 [Compound 12, 1-[5-(4,5-Dihydro-1H-imidazol-2-yl)-2-hydroxyphenyl]-4-[3-(4,5-dihydro-1H-imidazol-2-yl)phenyl]-1H-1,2,3-triazole Dihydrochloride]
fold less active against T. brucei rhodesiense ([1]; relative to diimidazoline 3): 7 fold

IC50 [2]: < 58 nM
SMILES: Cl.Cl.Oc1ccc(C2=NCCN2)cc1-c1cn(-c2cccc(C3=NCCN3)c2)nn1 [Compound 15, 4-[5-(4,5-Dihydro-1H-imidazol-2-yl)-2-hydroxyphenyl]-1-[3-(4,5-dihydro-1H-imidazol-2-yl)phenyl]-1H-1,2,3-triazole Dihydrochloride]
fold more active against P. falciparum [2]: 7 fold

SMILES: Cl.Cl.c1cc(C2=NCCN2)cc(-c2cn(-c3ccc(C4=NCCN4)cc3)nn2)c1 [Compound 18, 1-[4-(4,5-Dihydro-1H-imidazol-2-yl)phenyl]-4-(3-(4,5-dihydro-1H-imidazol-2-yl)phenyl)-1H-1,2,3-triazole Dihydrochloride]
fold less active against T. brucei rhodesiense ([1]; relative to diamidine 16): 25 fold

SMILES: COc1cc(C2=NCCN2)ccc1-n1cc(-c2cccc(C3=NCCN3)c2)nn1.Cl.Cl [Compound 21, 1-[4-(4,5-Dihydro-1H-imidazol-2-yl)-2-methoxyphenyl]-4-[3-(4,5-dihydro-1H-imidazol-2-yl)phenyl]-1H-1,2,3-triazole Dihydrochloride]
fold less active against T. brucei rhodesiense ([1]; relative to congener 19): 170 fold

IC50 [2]: < 58 nM
SMILES: COc1ccc(C2=NCCN2)cc1-c1cn(-c2ccc(C3=NCCN3)cc2)nn1 [Compound 24, 4-[5-(4,5-Dihydro-1H-imidazol-2-yl)-2-methoxyphenyl]-1-[4-(4,5-dihydro-1H-imidazol-2-yl)phenyl]-1H-1,2,3-triazole Dihydrochloride]

SMILES: Cl.Cl.N=C(N)c1cccc(-c2cn(-c3ccc(C(=N)N)cc3O)nn2)c1 [Compound 25, 1-(4-Amidino-2-hydroxyphenyl)-4-(3-amidinophenyl)-1H-1,2,3-triazole Dihydrochloride]
fold less active against T. brucei rhodesiense ([1]; relative to diamidine 16): ~22 fold

IC50 [2]: < 58 nM
SMILES: CC(C)NC(=N)c1ccc(-n2cc(-c3cc(C(=N)NC(C)C)ccc3O)nn2)cc1 [Compound 29, 4-(5-N-Isopropylamidino-2-hydroxyphenyl)-1-(4-N-isopropylamidinophenyl)-1H-1,2,3-triazole Dihydrochloride]

SMILES: Cl.Cl.c1cc(C2=NCCN2)cc(-n2cc(-c3ccc(C4=NCCN4)cc3)nn2)c1 [Compound 33, 1-[3-(4,5-Dihydro-1H-imidazol-2-yl)phenyl]-4-[4-(4,5-dihydro-1H-imidazol-2-yl)phenyl]-1H-1,2,3-triazole Dihydrochloride]
fold less active against T. brucei rhodesiense ([1]; relative to diamidine 31): 77 fold

SMILES: COc1ccc(C(=N)N)cc1-n1cc(-c2ccc(C(=N)N)cc2)nn1.Cl.Cl [Compound 34, 1-(5-Amidino-2-methoxyphenyl)-4-(4-amidinophenyl)-1H-1,2,3-triazole Dihydrochloride]
IC50 [2]: < 58 nM | fold less active against P. falciparum ([2]; relative to congener 31): 4 fold

SMILES: COc1ccc(C(=N)NC(C)C)cc1-n1cc(-c2ccc(C(=N)NC(C)C)cc2)nn1.Cl.Cl [Compound 35, 1-(5-N-Isopropylamidino-2-methoxyphenyl)-4-(4-N-isopropylamidinophenyl)-1H-1,2,3-triazole Dihydrochloride]
fold less active against P. falciparum ([2]; relative to bis(N-isopropyl)amidine 32): 5 fold

IC50 [2]: < 58 nM
SMILES: COc1ccc(C2=NCCN2)cc1-n1cc(-c2ccc(C3=NCCN3)cc2)nn1 [Compound 36, 1-[5-(4,5-Dihydro-1H-imidazol-2-yl)-2-methoxyphenyl]-4-[4-(4,5-dihydro-1H-imidazol-2-yl)phenyl]-1H-1,2,3-triazole Dihydrochloride]

SMILES: COc1cc(C2=NCCN2)ccc1-c1cn(-c2cccc(C3=NCCN3)c2)nn1.Cl.Cl [Compound 39, 4-[4-(4,5-Dihydro-1H-imidazol-2-yl)-2-methoxyphenyl]-1-[3-(4,5-dihydro-1H-imidazol-2-yl)phenyl]-1H-1,2,3-triazole Dihydrochloride]
fold less active against T. brucei rhodesiense ([1]; relative to diamidine 37): 804 fold

SMILES: Cl.Cl.N=C(N)c1ccc(-c2cn(-c3cc(C(=N)N)ccc3O)nn2)cc1 [Compound 40, 1-(5-Amidino-2-hydroxyphenyl)-4-(4-amidinophenyl)-1H-1,2,3-triazole Dihydrochloride]
fold less active against P. falciparum ([2]; relative to congener 31): 308 fold

SMILES: Cl.Cl.Oc1ccc(C2=NCCN2)cc1-n1cc(-c2ccc(C3=NCCN3)cc2)nn1 [Compound 42, 1-[5-(4,5-Dihydro-1H-imidazol-2-yl)-2-hydroxyphenyl]-4-[4-(4,5-dihydro-1H-imidazol-2-yl)phenyl]-1H-1,2,3-triazole Dihydrochloride]
fold less active against T. brucei rhodesiense ([1]; relative to diimidazoline 33): 43 fold

IC50 [2]: < 58 nM
SMILES: CC(C)NC(=N)c1cccc(-n2cc(-c3ccc(C(=N)NC(C)C)cc3O)nn2)c1 [Compound 44, 4-(4-N-Isopropylamidino-2-hydroxyphenyl)-1-(3-N-isopropylamidinophenyl)-1H-1,2,3-triazole Dihydrochloride]

IC50 [2]: < 58 nM
SMILES: Oc1cc(C2=NCCN2)ccc1-c1cn(-c2cccc(C3=NCCN3)c2)nn1 [Compound 45, 4-[4-(4,5-Dihydro-1H-imidazol-2-yl)-2-hydroxyphenyl]-1-[3-(4,5-dihydro-1H-imidazol-2-yl)phenyl]-1H-1,2,3-triazole Dihydrochloride]

IC50 [2]: < 58 nM
SMILES: c1cc(-c2cn(-c3ccc(C4=NCCN4)cc3)nn2)ccc1C1=NCCN1 [Compound 48, 1,4-Bis(4-(4,5-dihydro-1H-imidazol-2-yl)phenyl)-1H-1,2,3-triazole Dihydrochloride]

IC50 [2]: < 58 nM
SMILES: COc1cc(C(=N)N)ccc1-n1cc(-c2ccc(C(=N)N)cc2)nn1 [Compound 49, 1-(4-Amidino-2-methoxyphenyl)-4-(4-amidinophenyl)-1H-1,2,3-triazole Dihydrochloride]

IC50 [2]: < 58 nM
SMILES: COc1cc(C(=N)NC(C)C)ccc1-n1cc(-c2ccc(C(=N)NC(C)C)cc2)nn1 [Compound 50, 1-(4-N-Isopropylamidino-2-methoxyphenyl)-4-(4-N-isopropylamidinophenyl)-1H-1,2,3-triazole Dihydrochloride]

IC50 [2]: < 58 nM
SMILES: COc1cc(C2=NCCN2)ccc1-n1cc(-c2ccc(C3=NCCN3)cc2)nn1 [Compound 51, 1-[4-(4,5-Dihydro-1H-imidazol-2-yl)-2-methoxyphenyl]-4-[4-(4,5-dihydro-1H-imidazol-2-yl)phenyl]-1H-1,2,3-triazole Dihydrochloride]

IC50 [2]: < 58 nM
SMILES: COc1cc(C(=N)NC(C)C)ccc1-c1cn(-c2ccc(C(=N)NC(C)C)cc2)nn1 [Compound 53, 4-(4-N-Isopropylamidino-2-methoxyphenyl)-1-(4-N-isopropylamidinophenyl)-1H-1,2,3-triazole Dihydrochloride]

IC50 [2]: < 58 nM
SMILES: COc1cc(C2=NCCN2)ccc1-c1cn(-c2ccc(C3=NCCN3)cc2)nn1 [Compound 54, 4-[4-(4,5-Dihydro-1H-imidazol-2-yl)-2-methoxyphenyl]-1-[4-(4,5-dihydro-1H-imidazol-2-yl)phenyl]-1H-1,2,3-triazole Dihydrochloride]

SMILES: Cl.Cl.N=C(N)c1ccc(-c2cn(-c3ccc(C(=N)N)cc3O)nn2)cc1 [Compound 55, 1-(4-Amidino-2-hydroxyphenyl)-4-(4-amidinophenyl)-1H-1,2,3-triazole Dihydrochloride]
fold less active against T. brucei rhodesiense ([1]; relative to dication 46): 125 fold

IC50 [2]: < 58 nM
SMILES: Oc1cc(C2=NCCN2)ccc1-n1cc(-c2ccc(C3=NCCN3)cc2)nn1 [Compound 57, 1-[4-(4,5-Dihydro-1H-imidazol-2-yl)-2-hydroxyphenyl]-4-[4-(4,5-dihydro-1H-imidazol-2-yl)phenyl]-1H-1,2,3-triazole Dihydrochloride]

SMILES: CC(C)NC(=N)c1ccc(-n2cc(-c3ccc(C(=N)NC(C)C)cc3O)nn2)cc1.Cl.Cl [Compound 59, 4-(4-N-Isopropylamidino-2-hydroxyphenyl)-1-(4-N-isopropylamidinophenyl)-1H-1,2,3-triazole Dihydrochloride]
IC50 [2]: < 58 nM
